{"source": "patent US20090030079A1", "about": "(priority 2007, published 2009)", "key": {"[1]": {"conditions": "Zn^2+, cited from earlier work"}, "[2]": {"assay": "Decorporation of Cobalt-60: tissue distribution and excretion of IV administered Co-60 in rats", "assay_type": "in vivo, Male Wistar-Han rats", "conditions": "for Co-60 Dose % for animal group: single IV Co-60 14 KBq, 48 hr post exposure; for effect on total Co-60 excretion (urine and feces): monitored 2 days, not statistically significant, 15 mg/kg", "procedure": "Materials. Chloride stock solution of ^60Co as ^60CoCl2 was diluted with sterile saline solution to adjust to the desired activity and used for the IV dosing. Activity of the dosing solution was determined using automated Wallac 1480 (Perkin Elmer) gamma counter equipped with 3 inch NaI(TI) crystal shielded detector.\nAnimals. Male Wistar-Han rats were obtained from Charles River Breeding Laboratory (Raleigh, N.C.) with indwelling jugular vein cannula. Animals were provided food and water ad libitum during acclimatization. The light cycle was 12 hour light/12 hour dark and relative humidity and temperature maintained at 50±15% and 22±2° C. All animal use protocols were approved by the Institutional Animal Care and Use Committee at Battelle, Pacific Northwest Division and studies were performed according to the “Guide for the Care and Use of Laboratory Animals” (National Research Council, Washington D.C., 1996).\nDosing regimen. Animals were restricted from food overnight prior to exposure. At the time of exposure, groups of animals (N=6) received a single intravenous (IV) injection (0.2 mL) of ^60Co solution at 14.0±0.6 KBq dose in sterile saline via an indwelling jugular vein cannula. […] The actual doses delivered were calculated based on the individual animal weights (Table 3). One group of animals was dosed with the radionuclide without subsequent administration of the chelation material to serve as control group. Following dosing, animals were placed in Nalgene metabolism cages for separate collection of urine and feces. […] Animals were sacrificed 48 hr post radionuclide administration. At sacrifice, blood and tissues (liver, kidney, spleen, gastrointestinal tract, muscle, bone, bone marrow, and lung) were collected, weighed and counted for radioactivity using a Wallac 1480 gamma counter. Gamma count data were normalized to percent administered dose after adjusting the grams of tissue collected for total organ mass.\nData statistical evaluation. Each data group was subjected to Dixon's Q-test to evaluate for potential outliers. In this test Q parameter of 0.625 (N=6, 95% confidence level, a=0.05) was used (1). For each tissue, a preliminary F-test (95% confidence level, a=0.05) for the equality of variances of the control and each treatment group was performed using Excel software. If the calculated probability p value was less than 0.05, the variances were assumed to be not equal. Based on this information, “T-test: Two-Sample Assuming Unequal Variances” or “T-test: Two-Sample Assuming Equal Variances” (95% confidence level, a=0.05) was performed using Excel software. The calculated p-value less than 0.05 provides evidence to reject the null hypothesis of equal means. The obtained statistical parameters listed in Table 4 served as guidelines for data evaluation (Table 5; calculation assumes that total skeleton, blood, or muscle is approximately 7.3, 6, or 40% of the body weight of the animal, respectively; Co-60 in skeleton is calculated based on the femur data—R. P. Brown, M. D. Delp, S. L. Undstedt, L. R. Rhomberg, and R. P. Beliles, Physiological Parameter Values for Physiologically Based Pharmacokinetic Models. Toxicology and Industrial Health, 1997, 13(4): 407-484)."}, "[3]": {"conditions": "Ag^1+, cited from earlier work"}, "[4]": {"conditions": "Tl^1+; cited from earlier work"}, "[5]": {"conditions": "Co^2+; cited from earlier work"}, "[6]": {"assay": "Decorporation of Polonium-210: tissue distribution of IV administered Po-210 in rats", "assay_type": "in vivo, Wistar-Han rats", "conditions": "for % Reduction of Po-210 vs Po-210 Control / effect on polonium-210 level (in words): oral 15 mg/kg x 5, day 6; for Po-210 dpm/gm for animal group: single IV Po-210 approx. 90 kBq, oral 15 mg/kg every 24 h x 5, sacrifice day 6", "procedure": "The digested sample was diluted with distilled water to reduce the nitric acid to approximately 1 M. An aliquot of the resulting solution was added to Ultima Gold XR liquid scintillation cocktail (Packard BioScience, Meriden, Conn.), counted and corrected for possible quenching."}, "[7]": {"conditions": "Hg^2+, cited from earlier work"}, "[8]": {"conditions": "Cu^1+, cited from earlier work"}, "[9]": {"conditions": "Ni^2+, cited from earlier work"}, "[10]": {"conditions": "In^3+, cited from earlier work"}, "[11]": {"conditions": "Cd^2+, cited from earlier work"}, "[12]": {"conditions": "Pb^2+, cited from earlier work"}, "[13]": {"conditions": "single oral dose 15 mg/kg, day 1 post exposure"}}, "note": "Read-outs that look alike come from different tables or passages of the source.", "data": [{"smiles": "CC(C)(S)[C@@H](N)C(=O)O", "note": "[Penicillamine, 3-mercapto-D-valine]", "values": [{"measurement": "binding stability constant (log K)", "setting": "[1]", "result": 9.71}, {"measurement": "binding stability constant (log K)", "setting": "[1]; listed as penicillamine", "result": "fairly strong"}, {"measurement": "Co-60 Dose % for animal group", "setting": "[2]; Blood, single oral dose 15 mg/kg", "result": "0.089 ± 0.014", "unit": "%"}, {"measurement": "% Reduction of Co-60 vs Co-60 Control", "setting": "[2]; Blood, single oral dose 15 mg/kg, 48 hr", "result": 0, "unit": "%"}, {"measurement": "Co-60 Dose % for animal group", "setting": "[2]; Bone Marrow, single oral dose 15 mg/kg", "result": "Below detection"}, {"measurement": "Co-60 Dose % for animal group", "setting": "[2]; Intestine, single oral dose 15 mg/kg", "result": "0.94 ± 0.25", "unit": "%"}, {"measurement": "% Reduction of Co-60 vs Co-60 Control", "setting": "[2]; Intestine, single oral dose 15 mg/kg, 48 hr", "result": 47, "unit": "%"}, {"measurement": "Co-60 Dose % for animal group", "setting": "[2]; Kidney, single oral dose 15 mg/kg", "result": "0.31 ± 0.07", "unit": "%"}, {"measurement": "% Reduction of Co-60 vs Co-60 Control", "setting": "[2]; Kidney, single oral dose 15 mg/kg, 48 hr", "result": 56, "unit": "%"}, {"measurement": "Co-60 Dose % for animal group", "setting": "[2]; Liver, single oral dose 15 mg/kg", "result": "0.99 ± 0.25", "unit": "%"}, {"measurement": "% Reduction of Co-60 vs Co-60 Control", "setting": "[2]; Liver, single oral dose 15 mg/kg, 48 hr", "result": 51, "unit": "%"}, {"measurement": "Co-60 Dose % for animal group", "setting": "[2]; Lung, single oral dose 15 mg/kg", "result": "0.16 ± 0.07", "unit": "%"}, {"measurement": "% Reduction of Co-60 vs Co-60 Control", "setting": "[2]; Lung, single oral dose 15 mg/kg, 48 hr", "result": 0, "unit": "%"}, {"measurement": "Co-60 Dose % for animal group", "setting": "[2]; Muscle, single oral dose 15 mg/kg", "result": "0.63 ± 0.18", "unit": "%"}, {"measurement": "% Reduction of Co-60 vs Co-60 Control", "setting": "[2]; Muscle, single oral dose 15 mg/kg, 48 hr", "result": 39, "unit": "%"}, {"measurement": "Co-60 Dose % for animal group", "setting": "[2]; Spleen, single oral dose 15 mg/kg", "result": "0.056 ± 0.007", "unit": "%"}, {"measurement": "% Reduction of Co-60 vs Co-60 Control", "setting": "[2]; Spleen, single oral dose 15 mg/kg, 48 hr", "result": 0, "unit": "%"}, {"measurement": "Co-60 Dose % for animal group", "setting": "[2]; Stomach, single oral dose 15 mg/kg", "result": "0.041 ± 0.014", "unit": "%"}, {"measurement": "% Reduction of Co-60 vs Co-60 Control", "setting": "[2]; Stomach, single oral dose 15 mg/kg, 48 hr", "result": 45, "unit": "%"}, {"measurement": "Co-60 Dose % for animal group", "setting": "[2]; Total Skeleton (from femur data), single oral dose 15 mg/kg", "result": "0.32 ± 0.17", "unit": "%"}, {"measurement": "% Reduction of Co-60 vs Co-60 Control", "setting": "[2]; Total Skeleton, single oral dose 15 mg/kg, 48 hr", "result": 49, "unit": "%"}, {"measurement": "effect on blood levels of Co-60", "setting": "[2]; single oral dose 15 mg/kg, 48 hr", "result": "slightly decreased"}, {"measurement": "effect on urinary elimination of Co-60", "setting": "[2]; [13]", "result": "did not change"}, {"measurement": "increase of fecal elimination of Co-60", "setting": "[2]; [13]", "result": "about 3%"}, {"measurement": "effect on total Co-60 excretion (urine and feces)", "setting": "[2]; single oral dose 15 mg/kg", "result": "slightly increased"}, {"measurement": "effect on total Co-60 excretion (urine and feces)", "setting": "[2]; single oral dose 15 mg/kg, listed as penicillamine", "result": "appeared to accelerate"}, {"measurement": "reduction in the fraction of administered dose in the skeleton (based on femur data), liver and kidney", "setting": "[2]; single oral dose, Co-60", "result": "51-56%"}, {"measurement": "binding stability constant (log K)", "setting": "[3]", "result": 12.4}, {"measurement": "binding stability constant (log K)", "setting": "[3]; listed as penicillamine", "result": "fairly strong"}, {"measurement": "binding stability constant (log K)", "setting": "[4]", "result": 3.58}, {"measurement": "binding stability constant (log K)", "setting": "[5]", "result": 8.98}, {"measurement": "% Reduction of Po-210 vs Po-210 Control", "setting": "[6]; Blood", "result": 18, "unit": "%"}, {"measurement": "Po-210 dpm/gm for animal group", "setting": "[6]; Blood", "result": "28482 ± 6375", "unit": "dpm/gm"}, {"measurement": "Po-210 dpm/gm for animal group", "setting": "[6]; Femur", "result": "22969 ± 4055", "unit": "dpm/gm"}, {"measurement": "% Reduction of Po-210 vs Po-210 Control", "setting": "[6]; Kidney", "result": "−15", "unit": "%"}, {"measurement": "Po-210 dpm/gm for animal group", "setting": "[6]; Kidney", "result": "216172 ± 31993", "unit": "dpm/gm"}, {"measurement": "% Reduction of Po-210 vs Po-210 Control", "setting": "[6]; Liver", "result": 12, "unit": "%"}, {"measurement": "Po-210 dpm/gm for animal group", "setting": "[6]; Liver", "result": "124648 ± 47423", "unit": "dpm/gm"}, {"measurement": "% Reduction of Po-210 vs Po-210 Control", "setting": "[6]; Lung", "result": 20, "unit": "%"}, {"measurement": "effect on polonium-210 level (in words)", "setting": "[6]; Lung", "result": "reduced"}, {"measurement": "Po-210 dpm/gm for animal group", "setting": "[6]; Lung", "result": "67342 ± 7895", "unit": "dpm/gm"}, {"measurement": "Po-210 dpm/gm for animal group", "setting": "[6]; Spleen", "result": "236736 ± 35488", "unit": "dpm/gm"}, {"measurement": "% Reduction of Po-210 vs Po-210 Control", "setting": "[6]; femur", "result": 13, "unit": "%"}, {"measurement": "effect on polonium-210 level (in words)", "setting": "[6]; femur", "result": "reduced"}, {"measurement": "% Reduction of Po-210 vs Po-210 Control", "setting": "[6]; spleen", "result": 44, "unit": "%"}, {"measurement": "effect on polonium-210 level (in words)", "setting": "[6]; spleen", "result": "reduced"}, {"measurement": "binding stability constant (log K)", "setting": "[7]", "result": 16.3}, {"measurement": "binding stability constant (log K)", "setting": "[7]; listed as penicillamine", "result": "very strongly"}, {"measurement": "binding stability constant (log K)", "setting": "[8]", "result": "18.18 (Cu^1+)"}, {"measurement": "binding stability constant (log K)", "setting": "[8]; listed as penicillamine", "result": "very strongly"}, {"measurement": "binding stability constant (log K)", "setting": "[9]", "result": 10.70}, {"measurement": "binding stability constant (log K)", "setting": "[9]; listed as penicillamine", "result": "fairly strong"}, {"measurement": "binding stability constant (log K)", "setting": "[10]", "result": 15.33}, {"measurement": "binding stability constant (log K)", "setting": "[10]; listed as penicillamine", "result": "very strongly"}, {"measurement": "binding stability constant (log K)", "setting": "[11]", "result": 11.55}, {"measurement": "binding stability constant (log K)", "setting": "[11]; listed as penicillamine", "result": "fairly strong"}, {"measurement": "binding stability constant (log K)", "setting": "[12]", "result": 12.3}, {"measurement": "binding stability constant (log K)", "setting": "[12]; listed as penicillamine", "result": "fairly strong"}]}]}
